Measurements from ChEMBL document CHEMBL1201862, “PubChem BioAssay data set” (2004).
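Each compound was tested at five concentrations against cells in 96-well plates for 48 hours. The concentration for 50% growth inhibition is given as GI50.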 Activity calls are given as the source filed them. Cut-off read from the data, not from the text of the source: active = GI50 up to about 1.1 µM and inactive = higher.

Columns and labels:
Experiment in all cases: NCI-60 cell line screen, 48 h
SNB-19 = tested on: SNB-19
U-251 = tested on: U-251
HL-60 = tested on: HL-60
SR = tested on: SR
UO-31 = tested on: UO-31
NCI/ADR-RES = tested on: NCI/ADR-RES
MCF7 = tested on: MCF7
OVCAR-8 = tested on: OVCAR-8
MDA-N = tested on: MDA-N
HCC 2998 = tested on: HCC 2998
K562 = tested on: K562
HCT-15 = tested on: HCT-15
OVCAR-5 = tested on: OVCAR-5
M14 = tested on: M14
TK-10 = tested on: TK-10
A549 = tested on: A549
MDA-MB-435 = tested on: MDA-MB-435
HT-29 = tested on: HT-29
HOP-62 = tested on: HOP-62
NCI-H522 = tested on: NCI-H522

Structure (SMILES) | GI50 (SNB-19) | GI50 (U-251) | GI50 (HL-60) | GI50 (SR) | GI50 (UO-31) | GI50 (NCI/ADR-RES) | GI50 (MCF7) | GI50 (OVCAR-8) | GI50 (MDA-N) | GI50 (HCC 2998) | GI50 (K562) | GI50 (HCT-15) [µM] | GI50 (OVCAR-5) | GI50 (M14) | GI50 (TK-10) | GI50 (A549) | GI50 (MDA-MB-435) | GI50 (HT-29) | GI50 (HOP-62) | GI50 (NCI-H522)
Cc1cc2ccccc2n2c1nc1ccccc12 | > 100 µM (inactive) | > 100 µM (inactive) | > 100 µM (inactive) | > 100 µM (inactive) | > 100 µM (inactive) | > 100 µM (inactive) | > 100 µM (inactive) | > 100 µM (inactive) | > 100 µM (inactive) | > 100 µM (inactive) | > 100 µM (inactive) | > 100 | > 100 µM (inactive) | > 100 µM (inactive) | > 100 µM (inactive) | > 100 µM (inactive) | > 100 µM (inactive) | > 100 µM (inactive) | > 100 µM (inactive) | –
Cc1ccc2nc(NC(=O)C(=O)C3C(=O)NC(=S)NC3=O)sc2c1 | > 100 µM (inactive) | > 100 µM (inactive) | > 100 µM (inactive) | > 10 µM (inactive) | 77.3 µM (inactive) | > 100 µM (inactive) | > 100 µM (inactive) | > 100 µM (inactive) | > 100 µM (inactive) | > 100 µM (inactive) | – | > 100 | > 100 µM (inactive) | > 100 µM (inactive) | > 100 µM (inactive) | > 100 µM (inactive) | > 100 µM (inactive) | > 100 µM (inactive) | > 100 µM (inactive) | 78 µM (inactive)
N#Cc1cc(C#N)c(Cl)nc1N | > 10 µM (inactive) | > 10 µM (inactive) | 3.48 µM (inactive) | > 10 µM (inactive) | 0.0323 µM (active) | > 10 µM (inactive) | > 10 µM (inactive) | > 10 µM (inactive) | > 10 µM (inactive) | > 10 µM (inactive) | 7.53 µM (inactive) | > 10 | – | – | > 10 µM (inactive) | > 10 µM (inactive) | > 10 µM (inactive) | > 10 µM (inactive) | > 10 µM (inactive) | –
CCCS(=O)(=O)Nc1ccc(Nc2c3ccccc3nc3ccccc23)c(OC)c1 | 1.08 µM (active) | 0.641 µM (active) | 0.126 µM (active) | 0.0236 µM (active) | 1.08 µM (active) | 3.95 µM (inactive) | 0.365 µM (active) | 1.2 µM (inactive) | 4.16 µM (inactive) | 2.1 µM (inactive) | – | 1.35 | 8.63 µM (inactive) | 0.467 µM (active) | 3.78 µM (inactive) | 0.43 µM (active) | 5.28 µM (inactive) | 1.75 µM (inactive) | 0.561 µM (active) | 0.38 µM (active)
COc1cc(OC)cc(OCc2ccc3nc(-c4ccccc4)c(Cl)nc3c2)c1 | 25.9 µM (inactive) | 20.9 µM (inactive) | 54.6 µM (inactive) | 19.7 µM (inactive) | 66.2 µM (inactive) | 25 µM (inactive) | 58.6 µM (inactive) | 25.8 µM (inactive) | 44.1 µM (inactive) | 32.7 µM (inactive) | – | > 100 | 49 µM (inactive) | > 100 µM (inactive) | 20.2 µM (inactive) | 49.9 µM (inactive) | 84.5 µM (inactive) | 48.5 µM (inactive) | 16.7 µM (inactive) | 5.05 µM (inactive)
Clc1cc2nn(C3CCCCO3)nc2cc1Cl (stereo not given) | > 100 µM (inactive) | > 100 µM (inactive) | – | > 100 µM (inactive) | > 100 µM (inactive) | > 100 µM (inactive) | > 100 µM (inactive) | > 100 µM (inactive) | > 100 µM (inactive) | > 100 µM (inactive) | > 100 µM (inactive) | > 100 | > 100 µM (inactive) | > 100 µM (inactive) | > 100 µM (inactive) | > 100 µM (inactive) | > 100 µM (inactive) | > 100 µM (inactive) | > 100 µM (inactive) | > 100 µM (inactive)
COC(=O)c1c(C(=O)OC)c(C(c2ccccc2)c2ccccc2)n(-c2ccccc2)c1Cl | > 10 µM (inactive) | 6.73 µM (inactive) | 4.06 µM (inactive) | 3.17 µM (inactive) | 3.81 µM (inactive) | 4.24 µM (inactive) | 7.76 µM (inactive) | > 10 µM (inactive) | > 10 µM (inactive) | > 10 µM (inactive) | 4.14 µM (inactive) | 5.5 | > 10 µM (inactive) | > 10 µM (inactive) | > 10 µM (inactive) | 7.03 µM (inactive) | 7.16 µM (inactive) | 4.61 µM (inactive) | > 10 µM (inactive) | –
COc1ccc(/N=N/c2c(C)c(C#N)c(=S)n(C3OC(CO)C(O)C(O)C3O)c2-c2ccccc2)cc1 (stereo not given) | 41.3 µM (inactive) | 29 µM (inactive) | 58.2 µM (inactive) | 32.1 µM (inactive) | 39.4 µM (inactive) | 93.1 µM (inactive) | 38.3 µM (inactive) | – | 37.4 µM (inactive) | 88.5 µM (inactive) | 19.3 µM (inactive) | 34 | 36.9 µM (inactive) | 24.9 µM (inactive) | 39.5 µM (inactive) | 36.7 µM (inactive) | 24.5 µM (inactive) | 32.5 µM (inactive) | 37.9 µM (inactive) | –
Cc1cc2nc(N3C(=O)/C(=C/c4cccc([N+](=O)[O-])c4)N=C3c3ccccc3)sc2cc1C | 34.1 µM (inactive) | 22.8 µM (inactive) | 19.8 µM (inactive) | 14.9 µM (inactive) | 32.5 µM (inactive) | 28.4 µM (inactive) | 16.1 µM (inactive) | 21.4 µM (inactive) | 12.5 µM (inactive) | 21.4 µM (inactive) | 30.1 µM (inactive) | 36.5 | 40.2 µM (inactive) | 37.2 µM (inactive) | 71.1 µM (inactive) | 36.1 µM (inactive) | 12.8 µM (inactive) | 27.5 µM (inactive) | 35.7 µM (inactive) | –
COc1cc(S(=O)(=O)Nc2ccc(-c3csc(N4C(=O)CSC4c4ccccc4O)n3)cc2)ccc1Cl (stereo not given) | 57.9 µM (inactive) | – | 22.2 µM (inactive) | 54.8 µM (inactive) | 51.3 µM (inactive) | > 100 µM (inactive) | 30.9 µM (inactive) | 55.1 µM (inactive) | 32.9 µM (inactive) | 21.6 µM (inactive) | 34.8 µM (inactive) | 58.5 | 79.6 µM (inactive) | 64.3 µM (inactive) | – | 61.8 µM (inactive) | 40.4 µM (inactive) | 92 µM (inactive) | 85.7 µM (inactive) | 24.3 µM (inactive)
COC(=O)C1C=CN(N(C)C)C2=C1C(=O)c1c(O)cccc1C2=O (stereo not given) | 2.34 µM (inactive) | 3.29 µM (inactive) | – | 0.152 µM (active) | 3.82 µM (inactive) | 2.22 µM (inactive) | 1.95 µM (inactive) | 2.67 µM (inactive) | 0.422 µM (active) | 1.93 µM (inactive) | 3.09 µM (inactive) | 1.51 | 2.42 µM (inactive) | 1.69 µM (inactive) | 4.27 µM (inactive) | 2.47 µM (inactive) | 0.429 µM (active) | 1.49 µM (inactive) | 2.68 µM (inactive) | 2.48 µM (inactive)
